# Test results: publication PMC7402526, “An in vitro quantitative systems pharmacology approach for deconvolving mechanisms of drug-induced, multilineage cytopenias” (PLoS Computational Biology, 2020)
# What was measured:
# [1] = test system: hematopoietic stem cells (HSCs); test: Multi-lineage toxicity assay (MLTA), HSCs: concentration-response and QSP model fit; format: cell-based, human; set-up: EmaxAP,HSC / EmaxT,HSC / Emax_drug_HSC: unitless, 0–2; ≤1 anti-proliferative, >1 adds cell killing; settings: for EC50 / activity at 0.0002 µM / activity at 0.001 µM / activity at 0.005 µM / activity at 0.025 µM / activity at 0.1 µM / activity at 0.5 µM / activity at 2.5 µM / Emax: Homo sapiens, Hematopoietic stem cell, 144 h; for EC50: QSP model fit of 6-day MLTA data; for activity at 0.0002 µM: dose 0.2 nM; for activity at 0.0002 µM / activity at 0.001 µM / activity at 0.005 µM / activity at 0.025 µM / activity at 0.1 µM / activity at 0.5 µM / activity at 2.5 µM: 6 days, normalized to vehicle control, read-out: HSCs normalized cell count; for activity at 0.001 µM: dose 1 nM; for activity at 0.005 µM: dose 5 nM; for activity at 0.025 µM: dose 25 nM; for activity at 0.1 µM: dose 100 nM; for activity at 0.5 µM: dose 500 nM; for activity at 2.5 µM: dose 2500 nM; for Emax: parameter from QSP model fitting, read-out: Emax_drug_HSC
# Outline: (§1)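 Values derive from fitting a QSP Emax model (EmaxT 0–2, above 1 denoting added cell killing) to vehicle-normalized lineage counts. Counts were obtained by 17-parameter flow after 6-day culture of human bone marrow CD34+ cells with test article.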
# [2] = test system: multi-potent progenitors (MPPs); test: MLTA, MPPs: concentration-response and QSP model fit; format: cell-based, human; settings: Homo sapiens, 144 h; for activity at 0.0002 µM: dose 0.2 nM; for activity at 0.0002 µM / activity at 0.001 µM / activity at 0.005 µM / activity at 0.025 µM / activity at 0.1 µM / activity at 0.5 µM / activity at 2.5 µM: 6 days, normalized to vehicle control, read-out: MPPs normalized cell count; for activity at 0.001 µM: dose 1 nM; for activity at 0.005 µM: dose 5 nM; for activity at 0.025 µM: dose 25 nM; for activity at 0.1 µM: dose 100 nM; for activity at 0.5 µM: dose 500 nM; for activity at 2.5 µM: dose 2500 nM; for Emax: parameter from QSP model fitting, read-out: Emax_drug_MPP
# Outline: as §1
# [3] = test system: neutrophils (neutrophil-lin); test: MLTA, Neut: concentration-response and QSP model fit; format: cell-based, human; settings: Homo sapiens, Neutrophil, 144 h; for EC50: QSP model fit of 6-day MLTA data; for activity at 0.0002 µM: dose 0.2 nM; for activity at 0.0002 µM / activity at 0.001 µM / activity at 0.005 µM / activity at 0.025 µM / activity at 0.1 µM / activity at 0.5 µM / activity at 2.5 µM: 6 days, normalized to vehicle control, read-out: Neut normalized cell count; for activity at 0.001 µM: dose 1 nM; for activity at 0.005 µM: dose 5 nM; for activity at 0.025 µM: dose 25 nM; for activity at 0.1 µM: dose 100 nM; for activity at 0.5 µM: dose 500 nM; for activity at 2.5 µM: dose 2500 nM; for Emax: parameter from QSP model fitting, read-out: Emax_drug_Neut
# Outline: as §1
# [4] = test system: total viable cells (totalViableCells); test: MLTA, total live cells concentration-response; format: cell-based; settings: Homo sapiens, 144 h, 6 days, normalized to vehicle control, read-out: total_live normalized cell count; for viability at 0.0002 µM: dose 0.2 nM; for viability at 0.001 µM: dose 1 nM; for viability at 0.005 µM: dose 5 nM; for viability at 0.025 µM: dose 25 nM; for viability at 0.1 µM: dose 100 nM; for viability at 0.5 µM: dose 500 nM; for viability at 2.5 µM: dose 2500 nM
# Outline: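 Freeze-thawed primary human bone marrow CD34+ cells in SFEM II with cytokine cocktail, drug added day 0, 6 days at 37°C, 5% CO2. Live/dead counts by 17-parameter flow cytometry with DAPI exclusion, bead-normalized, volume-corrected to cells/mL. Normalized per donor to mean of six vehicle wells; 2–7 donors pooled.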
# [5] = test system: late erythroid cells (Eryth II); test: MLTA, ErythII: concentration-response and QSP model fit; format: cell-based, human; settings: Homo sapiens, 144 h; for EC50: QSP model fit of 6-day MLTA data, read-out: EC50ErythII; for activity at 0.0002 µM: dose 0.2 nM; for activity at 0.0002 µM / activity at 0.001 µM / activity at 0.005 µM / activity at 0.025 µM / activity at 0.1 µM / activity at 0.5 µM / activity at 2.5 µM: 6 days, normalized to vehicle control, read-out: ErythII normalized cell count; for activity at 0.001 µM: dose 1 nM; for activity at 0.005 µM: dose 5 nM; for activity at 0.025 µM: dose 25 nM; for activity at 0.1 µM: dose 100 nM; for activity at 0.5 µM: dose 500 nM; for activity at 2.5 µM: dose 2500 nM; for Emax: parameter from QSP model fitting, read-out: Emax_drug_ErythroidII
# Outline: as §1
# [6] = test system: early erythroid cells (Eryth I); test: MLTA, ErythI: concentration-response and QSP model fit; format: cell-based, human; settings: Homo sapiens, 144 h; for activity at 0.0002 µM: dose 0.2 nM; for activity at 0.0002 µM / activity at 0.001 µM / activity at 0.005 µM / activity at 0.025 µM / activity at 0.1 µM / activity at 0.5 µM / activity at 2.5 µM: 6 days, normalized to vehicle control, read-out: ErythI normalized cell count; for activity at 0.001 µM: dose 1 nM; for activity at 0.005 µM: dose 5 nM; for activity at 0.025 µM: dose 25 nM; for activity at 0.1 µM: dose 100 nM; for activity at 0.5 µM: dose 500 nM; for activity at 2.5 µM: dose 2500 nM; for Emax: parameter from QSP model fitting, read-out: Emax_drug_ErythroidI
# Outline: (§2)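 Freeze-thawed primary human bone marrow CD34+ cells were cultured 6 days in SFEM II with a cytokine cocktail, drug added on day 0. Subsets were counted by 17-parameter flow cytometry with TruCount beads and normalized to vehicle wells. An Emax QSP model (Emax 0–2, L1 regularization) was fitted to these counts.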
# [7] = test system: granulocyte progenitor (Gran-lin prog); test: MLTA, GranP: concentration-response and QSP model fit; format: cell-based, human; settings: Homo sapiens, 144 h; for EC50: QSP model fit of 6-day MLTA data, read-out: EC50GranP; for activity at 0.0002 µM: dose 0.2 nM; for activity at 0.0002 µM / activity at 0.001 µM / activity at 0.005 µM / activity at 0.025 µM / activity at 0.1 µM / activity at 0.5 µM / activity at 2.5 µM: 6 days, normalized to vehicle control, read-out: GranPs normalized cell count; for activity at 0.001 µM: dose 1 nM; for activity at 0.005 µM: dose 5 nM; for activity at 0.025 µM: dose 25 nM; for activity at 0.1 µM: dose 100 nM; for activity at 0.5 µM: dose 500 nM; for activity at 2.5 µM: dose 2500 nM; for Emax: parameter from QSP model fitting, read-out: Emax_drug_GranP
# Outline: as §2
compound,measurement,setting,value
CS(=O)(=O)N1CCN(Cc2cc3nc(-c4cccc5[nH]ncc45)nc(N4CCOCC4)c3s2)CC1 [pictilisib],EC50,[1],289 nM
same,activity at 0.0002 µM,[1],89.1%
same,activity at 0.001 µM,[1],102%
same,activity at 0.005 µM,[1],88.5%
same,activity at 0.025 µM,[1],99.2%
same,activity at 0.1 µM,[1],58.1%
same,activity at 0.5 µM,[1],28.1%
same,activity at 2.5 µM,[1],8.09%
same,Emax,[1],48.6%
same,activity at 0.0002 µM,[2],89.3%
same,activity at 0.001 µM,[2],82.2%
same,activity at 0.005 µM,[2],71.7%
same,activity at 0.025 µM,[2],67.2%
same,activity at 0.1 µM,[2],49.1%
same,activity at 0.5 µM,[2],38.2%
same,activity at 2.5 µM,[2],28%
same,Emax,[2],0.03%
same,EC50,[3],132 nM
same,activity at 0.0002 µM,[3],92.7%
same,activity at 0.001 µM,[3],82.6%
same,activity at 0.005 µM,[3],64.5%
same,activity at 0.025 µM,[3],59.8%
same,activity at 0.1 µM,[3],30.4%
same,activity at 0.5 µM,[3],6.17%
same,activity at 2.5 µM,[3],0.529%
same,Emax,[3],16.5%
same,viability at 0.0002 µM,[4],97.8%
same,viability at 0.001 µM,[4],96.4%
same,viability at 0.005 µM,[4],91.2%
same,viability at 0.025 µM,[4],84%
same,viability at 0.1 µM,[4],60.1%
same,viability at 0.5 µM,[4],33.9%
same,viability at 2.5 µM,[4],12.9%
same,EC50,[5],191 nM
same,activity at 0.0002 µM,[5],94.6%
same,activity at 0.001 µM,[5],92%
same,activity at 0.005 µM,[5],90%
same,activity at 0.025 µM,[5],86.7%
same,activity at 0.1 µM,[5],55.5%
same,activity at 0.5 µM,[5],23.3%
same,activity at 2.5 µM,[5],5.88%
same,Emax,[5],13.6%
same,activity at 0.0002 µM,[6],110%
same,activity at 0.001 µM,[6],107%
same,activity at 0.005 µM,[6],107%
same,activity at 0.025 µM,[6],100%
same,activity at 0.1 µM,[6],92.8%
same,activity at 0.5 µM,[6],65.5%
same,activity at 2.5 µM,[6],27.5%
same,Emax,[6],0.03%
same,EC50,[7],93 nM
same,activity at 0.0002 µM,[7],95.5%
same,activity at 0.001 µM,[7],100%
same,activity at 0.005 µM,[7],101%
same,activity at 0.025 µM,[7],84%
same,activity at 0.1 µM,[7],70.2%
same,activity at 0.5 µM,[7],60.8%
same,activity at 2.5 µM,[7],28.4%
same,Emax,[7],60.5%
CN(C)C(=O)c1cc2cnc(Nc3ccc(N4CCNCC4)cn3)nc2n1C1CCCC1 [ribociclib],EC50,[1],373 nM
same,activity at 0.0002 µM,[1],90.3%
same,activity at 0.001 µM,[1],93.9%
same,activity at 0.005 µM,[1],107%
same,activity at 0.025 µM,[1],98.7%
same,activity at 0.1 µM,[1],89.4%
same,activity at 0.5 µM,[1],67.7%
same,activity at 2.5 µM,[1],35.2%
same,Emax,[1],48.9%
same,"EmaxAP,HSC","[1]; anti-proliferation component, min(1, EmaxT)",0.489
same,activity at 0.0002 µM,[2],81.4%
same,activity at 0.001 µM,[2],91.9%
same,activity at 0.005 µM,[2],83.8%
same,activity at 0.025 µM,[2],63.7%
same,activity at 0.1 µM,[2],46.9%
same,activity at 0.5 µM,[2],28.4%
same,activity at 2.5 µM,[2],16.9%
same,Emax,[2],0.0237%
same,EC50,[3],178 nM
same,activity at 0.0002 µM,[3],77.2%
same,activity at 0.001 µM,[3],83.1%
same,activity at 0.005 µM,[3],96.4%
same,activity at 0.025 µM,[3],65.4%
same,activity at 0.1 µM,[3],52.7%
same,activity at 0.5 µM,[3],25.1%
same,activity at 2.5 µM,[3],4.85%
same,Emax,[3],13.9%
same,viability at 0.0002 µM,[4],90%
same,viability at 0.001 µM,[4],97.8%
same,viability at 0.005 µM,[4],106%
same,viability at 0.025 µM,[4],79.4%
same,viability at 0.1 µM,[4],66.6%
same,viability at 0.5 µM,[4],42.1%
same,viability at 2.5 µM,[4],17.8%
same,EC50,[5],222 nM
same,activity at 0.0002 µM,[5],84.3%
same,activity at 0.001 µM,[5],97.7%
same,activity at 0.005 µM,[5],113%
same,activity at 0.025 µM,[5],81.4%
same,activity at 0.1 µM,[5],79.8%
same,activity at 0.5 µM,[5],66.7%
same,activity at 2.5 µM,[5],33.6%
same,Emax,[5],10.8%
same,activity at 0.0002 µM,[6],101%
same,activity at 0.001 µM,[6],102%
same,activity at 0.005 µM,[6],108%
same,activity at 0.025 µM,[6],85.8%
same,activity at 0.1 µM,[6],69%
same,activity at 0.5 µM,[6],31.2%
same,activity at 2.5 µM,[6],9.42%
same,Emax,[6],0.05%
same,EC50,[7],21.4 nM
same,activity at 0.0002 µM,[7],87.1%
same,activity at 0.001 µM,[7],105%
same,activity at 0.005 µM,[7],104%
same,activity at 0.025 µM,[7],81.3%
same,activity at 0.1 µM,[7],70.3%
same,activity at 0.5 µM,[7],34.4%
same,activity at 2.5 µM,[7],10.8%
same,Emax,[7],6.43%
